Measurements from patent US20100168210A1, “T-Cell Cytokine-Inducing Surface Molecules and Methods of Use” (priority 2007, published 2010).

What was measured:
[1] = system: LPS-stimulated TNFα and IL-1β production; assay: LPS-stimulated Mφ cytokine production; assay type: cell-based, human; conditions: FIG. 14
Excerpt: Using the T cell membrane-Mφ cell contact bioassay, small molecule antagonists were identified that differentially block anti-CD3/anti-CD28 activated T-cell mediated—but not LPS stimulated—TNFα and IL-1β production from peripheral blood resident CD14^+ Mφ. Several kinase inhibitors were selected and assessed for the effects of these compounds in blocking TNFα and/or IL-1β production using a validated T-cell membrane-Mφ contact bioassay. […] Therefore, the activated T-cell membrane-Mt contact bioassay using human T-cells and Mφ can be used to establish high-throughput screens with recombinant TCISM (once identified and cloned) to identify orally-active, small molecule antagonists that specifically target adaptive, but not LPS-mediated, innate immunity. Some orally active, small molecule TNFα and/or IL-1β inhibitors which interfere specifically with T-cell mediated Mφ activation, leading to enhanced cytokine production but not LPS-mediated Mφ cytokine release, have a favorable therapeutic/side effect profile in T-cell mediated skin diseases such as Ps.

[2] = system: Murine Collagen-Induced Arthritis; assay: Murine Collagen-Induced Arthritis study; assay type: in vivo, mice; conditions: 50 mg/kg P.O. once per day beginning at day +1; day +13 after induction; FIG. 18
Method: Mice were immunized with CII+CFA on day 0 and boosted on day 21 with CII+IFA. A total of 10 DBA female mice per group were used. Drugs were administered as shown and started on the first day of initial signs of paw swelling/arthritis. Mean arthritis score (see data below) was assessed according to the procedure of Bendele et al., Arthritis & Rheumatism, 2000, 43(12), pp 2648-2659. […] Mice were treated 8 days after showing signs of collagen induced arthritis.
FIG. 18 is a joint histopathology of representative mice. In FIG. 18, panel A denotes a knee joint obtained from a DBA mouse with collagen-induced arthritis treated with an isotype-control rat-anti-mouse MAb (negative control) showing that […] over the course of this control treatment.

[3] = system: T-cell-mediated TNFα production from human Mφ; assay: T cell membrane-Mφ cell contact bioassay (activated T-cell mediated cytokine production); assay type: cell-based; conditions: anti-CD3/anti-CD28 activated T-cell membranes; CD14+ Mφ; FIG. 14
Method: Primary T cells or H9 cells were washed with cold PBS and cell pellets were resuspended in freshly made 1% paraformaldehyde at 5×10^6 cells/ml. Cells were fixed on ice for 2 hours, and then washed with 20× volume of cold PBS three times. Following the third wash, the cells were kept in PBS at 4° C. overnight to allow diffusion of paraformaldehyde. Cells were centrifuged and washed one more time. The fixed T cells were resuspended in medium at 1×10^7 cells/ml and dispensed into a 96 well U bottom plate at about 1×10^6/ml THP-1 cells 100 μl per well. Primary T cells or H9 cells (100 μl per well) were added at 8×, 4×, and 2×10^6 cells/ml. The plates were incubated at 37° C., in humidified 5% CO2 for 48 hours. Plates were centrifuged at 1,500 rpm for 5 minutes and supernatant (120 μl) transferred into a fresh plate. The supernatant was stored at −20° C. until used. […]
Using the T cell membrane-Mφ cell contact bioassay, small molecule antagonists were identified that differentially block anti-CD3/anti-CD28 activated T-cell mediated—but not LPS stimulated—TNFα and IL-1β production from peripheral blood resident CD14^+ Mφ. Several kinase inhibitors were selected and assessed for the effects of these compounds in blocking TNFα and/or IL-1β production using a validated T-cell membrane-Mφ contact bioassay. […]

For `C[S+]([O-])c1ccccc1-n1cnc(-c2ccc(F)cc2)c1-c1ccncc1` (stereo not drawn) [Compound C], the “Effect on LPS-stimulated TNFα and IL-1β production” value [1] was “without having any significant effect”, the “Joint histopathology (knee joint inflammation)” value [2] was “reduced inflammation” and the “Inhibition of T-cell-mediated TNFα production from human Mφ” value [3] was “completely inhibit”.
